Test results taken from PubChem BioAssay (NCI).
Several values for one entry are separate records, joined by “and”; a condition that tells them apart may be missing. Equal values may be shown once.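 Method: 48-hour compound exposure of cells in 96-well plates, five concentrations, linear interpolation of endpoints. Abbreviation: GI50, concentration required for 50% inhibition of growth. TGI: concentration producing complete growth inhibition.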

Assays:
Experiment in all cases: DTP human tumour cell line panel, 48 h
NCI-H23 lung = test system: NCI-H23 lung
KM12 colon = test system: KM12 colon
K-562 leukemia = test system: K-562 leukemia
NCI-H460 lung = test system: NCI-H460 lung
NCI-H226 lung = test system: NCI-H226 lung
MCF7 breast = test system: MCF7 breast
ACHN renal = test system: ACHN renal
SW-620 colon = test system: SW-620 colon
TK-10 renal = test system: TK-10 renal
HT29 colon = test system: HT29 colon

SMILES	GI50 (NCI-H23 lung)	TGI (NCI-H23 lung)	TGI (KM12 colon)	TGI (K-562 leukemia)	GI50 (NCI-H460 lung)	TGI (NCI-H460 lung)	GI50 (NCI-H226 lung)	TGI (NCI-H226 lung)	TGI (MCF7 breast)	GI50 (ACHN renal)	TGI (ACHN renal)	GI50 (SW-620 colon)	TGI (SW-620 colon)	TGI (TK-10 renal)	TGI (HT29 colon)	GI50 (KM12 colon)	GI50 (K-562 leukemia)	GI50 (MCF7 breast)	GI50 (TK-10 renal)	GI50 (HT29 colon)
COc1cc(C2c3cc4c(cc3[C@@H](Nc3ccc(N)cc3)C3COC(=O)[C@H]23)OCO4)cc(OC)c1O (stereo partly drawn)	0.415 µM	4.85 µM	14.3 µM	46.3 µM	0.139 µM	2.36 µM	0.336 µM	0.868 µM and 4.7 µM	12.3 µM	0.345 µM	6.05 µM	0.823 µM	24.5 µM	23.7 µM	54 µM					
Cc1ccc2c(c1)C(=O)c1c-2n(CCCN=[N+]=[N-])c(=O)c2cc([N+](=O)[O-])ccc12	> 100 µM	> 100 µM	> 100 µM	> 100 µM	21.1 µM	> 100 µM	> 100 µM	> 100 µM	> 100 µM	30.8 µM	> 100 µM	59.7 µM	> 100 µM	> 100 µM	> 100 µM	83 µM	39.4 µM	50.1 µM	99.8 µM	14.7 µM
Oc1c(CN2CCOCC2)cc(COCc2ccccc2)c2cccnc12	3.25 µM	> 100 µM	> 100 µM	> 100 µM	0.756 µM	53.3 µM	4.65 µM	36.8 µM	> 100 µM	0.571 µM	> 100 µM	3.61 µM	> 100 µM	> 100 µM	65.4 µM	3.73 µM	2.74 µM	2.07 µM	3.75 µM	19.8 µM
CC(=O)N1CCN(CCOc2ccc(C3CCN(C4=Nn5c(nnc5C(F)(F)F)CC4)CC3)cc2)CC1	11.4 µM	> 100 µM	> 100 µM	> 100 µM	30.9 µM	> 100 µM	34.8 µM	> 100 µM	> 100 µM	10.6 µM	> 100 µM	> 100 µM	> 100 µM	> 100 µM	> 100 µM	31.5 µM	8.25 µM	4.3 µM	7.31 µM	9.08 µM
CCc1nc(-n2c(-c3ccccc3)nc3ccccc3c2=O)nc(N)c1-c1ccc(Cl)cc1	2.9 µM	39.7 µM	> 100 µM	> 100 µM	8 µM	> 100 µM	69.2 µM	> 100 µM	> 100 µM	5.53 µM	> 100 µM	4.64 µM	> 100 µM	> 100 µM	> 100 µM	26.6 µM	3.06 µM	80.7 µM	23.1 µM	6.62 µM
CCCCCc1c(C)[nH]c(/C=C2\N=C(c3ccc[nH]3)C=C2OCc2ccccc2)c1C	0.116 µM and 0.0563 µM	2.23 µM and 0.627 µM	1.04 µM and 0.262 µM		0.0423 µM and 0.031 µM	1.42 µM and 1.16 µM	0.0748 µM and 0.201 µM	1.65 µM and 2.03 µM	0.859 µM and 1.06 µM	0.0514 µM and 0.0324 µM	0.941 µM and 0.75 µM	0.0369 µM and 0.0295 µM	1.21 µM and 0.322 µM	1.01 µM and 0.471 µM	1.22 µM	0.0352 µM and 0.0246 µM	0.0372 µM and 0.0448 µM	0.0395 µM and 0.0361 µM	0.0475 µM and 0.0418 µM	0.0314 µM and 0.0196 µM
CCOc1cc(C(C)(C)C)ccc1C1=N[C@@](C)(c2ccc(Cl)cc2)[C@@](C)(c2ccc(Cl)cc2)N1C(=O)N1CCN(CCS(C)(=O)=O)CC1	4.69 µM	20.2 µM	11.4 µM	21.7 µM	1.1 µM	5.4 µM	0.5 µM	2.13 µM	3.75 µM	0.45 µM	2.56 µM	5.03 µM	20.5 µM	10.3 µM	4.74 µM	3.33 µM	3.9 µM	0.606 µM	3.12 µM	2.29 µM
O=C1c2ccccc2-c2c1c1ccccc1c(=O)n2-c1ccccc1		24 µM	> 100 µM	> 100 µM		36.6 µM		41.4 µM	> 100 µM		17.1 µM		> 100 µM	27 µM	> 100 µM					
N#Cc1c2c(c(-c3cccs3)n(C3OC(CO)C(O)C(O)C3O)c1=S)CCc1ccccc1-2 (stereo not drawn)	13.5 µM and > 39.3 µM	> 100 µM	> 100 µM	> 100 µM	37.8 µM and > 100 µM	> 100 µM		> 100 µM	> 100 µM	13.8 µM and > 92.2 µM	> 100 µM		> 100 µM	> 100 µM	> 100 µM					6.27 µM and > 20.9 µM
O=C(CC(=O)c1ccccc1)c1ccccc1	13.6 µM	43.4 µM	> 100 µM	> 100 µM	7.94 µM	40 µM	37.2 µM	> 100 µM	82.3 µM	11.5 µM	34.5 µM	13.2 µM	> 100 µM	93.7 µM	> 100 µM	3.98 µM	8.31 µM	10.1 µM	20.5 µM	30.1 µM
CC[C@H](NC(=O)[C@H](CS(=O)(=O)CC1CC1)N[C@@H](c1ccc(F)cc1)C(F)(F)F)C(=O)C(=O)NC1CC1	> 100 µM	> 100 µM	> 100 µM	> 100 µM	> 100 µM	> 100 µM	> 100 µM	> 100 µM	> 100 µM	> 100 µM	> 100 µM	> 100 µM	> 100 µM	> 100 µM	> 100 µM	> 100 µM	> 100 µM	86.8 µM	> 100 µM	> 100 µM
O=c1c2c3c(sc2n2c(-c4ccc(Br)cc4)nnc2n1Cc1ccccc1)CCCC3	12.4 µM	31.3 µM	24.7 µM	> 100 µM	10.2 µM	22.3 µM	7.32 µM	20.3 µM	23.2 µM	8.74 µM	21.1 µM	13.1 µM	26.3 µM	21.8 µM	58.7 µM	10.2 µM	23.8 µM	10.6 µM	7.94 µM	20.6 µM
COc1ccc(NC(=O)/C=C(C)/C=C/C=C(C)\C=C\C2=C(C)CCCC2(C)C)cc1	30.1 µM	> 100 µM	> 100 µM	> 100 µM	84 µM	> 100 µM	> 100 µM	> 100 µM	> 100 µM	> 100 µM	> 100 µM	51.6 µM	> 100 µM	> 100 µM	> 100 µM	62.8 µM	30.3 µM	40.3 µM	> 100 µM	41.2 µM
CC1(C)[C@@H](OC(N)=O)C=C[C@]2(C=O)[C@H]3CC[C@]4(C)[C@@H](c5ccc(=O)oc5)[C@@H](Cl)C[C@]4(O)C3=CC[C@@H]12	0.00298 µM	0.0102 µM	0.0238 µM	0.0197 µM	< 0.0025 µM	0.0048 µM	0.00433 µM	0.00829 µM	0.0287 µM	< 0.0025 µM	0.00649 µM	0.00561 µM	0.013 µM	0.0157 µM	0.011 µM	0.00743 µM	0.00668 µM	0.00688 µM	0.00527 µM	0.00521 µM
C#Cc1cc2c(N)c(C(=O)c3cc(OC)c(OC)c(OC)c3)[nH]c2cc1OC	1.94 µM	> 100 µM	> 100 µM	> 100 µM	0.408 µM	> 100 µM	5.74 µM	> 100 µM	> 100 µM	0.574 µM	> 100 µM	0.396 µM	> 100 µM	> 100 µM	76.2 µM	0.412 µM	0.462 µM	0.325 µM	17.8 µM	0.374 µM
Oc1ccc(Cl)cc1-c1cc(-c2ccc(F)cc2)n[nH]1	1.61 µM	4.09 µM	2.54 µM	27.1 µM	1.2 µM	4.1 µM	2.57 µM	12.9 µM	14.1 µM	2.34 µM	7.2 µM	2.64 µM	10.5 µM	8.74 µM	22.2 µM	1.01 µM	2.8 µM	0.395 µM	3.23 µM	3.99 µM
COC(=O)[C@]12CC[C@@H](C)[C@H](C)[C@@H]1C1=CC[C@@H]3[C@@]4(C)CC(=O)[C@H](OC(=O)c5ccco5)[C@@]5(C)COC(=C45)C[C@@]3(C)[C@]1(C)CC2	0.936 µM	> 100 µM	> 100 µM	> 100 µM	0.568 µM	> 100 µM	83.1 µM	> 100 µM	> 100 µM	2.94 µM	> 100 µM	0.902 µM	> 100 µM	> 100 µM	> 100 µM	2.22 µM	0.413 µM	0.741 µM	30.8 µM	0.523 µM
N=C(N)SCCc1ccccn1	35.5 µM and > 100 µM	> 100 µM	> 100 µM	> 100 µM		> 100 µM		> 100 µM	> 100 µM		> 100 µM		> 100 µM	> 100 µM	> 100 µM					
CCOC(=O)Cc1csc(NC(=O)COC(=O)c2ccc(OC)cc2)n1	29.8 µM	> 100 µM	> 100 µM	> 60.9 µM	33.8 µM	> 100 µM	> 100 µM	> 100 µM	> 100 µM	> 100 µM	> 100 µM	> 96.1 µM	> 100 µM	> 100 µM	> 80.1 µM	> 83.6 µM	1.16 µM	64.2 µM	> 100 µM	30.8 µM
CC(C)(C)C(=O)OCc1nc2cc3c(cc2c(=O)[nH]1)CCC3=O	> 100 µM	> 100 µM	> 100 µM	> 100 µM	> 100 µM	> 100 µM	> 100 µM	> 100 µM	> 100 µM	> 100 µM	> 100 µM	> 100 µM	> 100 µM	> 100 µM	> 100 µM	> 100 µM	> 100 µM	> 100 µM	> 100 µM	> 100 µM
Cc1sc2ncn(Cc3ccc(Cl)c(Cl)c3)c(=O)c2c1C	32.5 µM	> 100 µM	11.7 µM	> 100 µM	51.5 µM	> 100 µM	> 100 µM	> 100 µM	> 100 µM	12.4 µM	> 100 µM	59.8 µM	> 100 µM	7.91 µM	> 100 µM	2.44 µM	5.4 µM	25.6 µM	1.81 µM	77.7 µM
CCOC(=O)c1ccccc1-c1c2ccc(=[N+](C)C)cc-2oc2cc(N(C)C)ccc12	0.231 µM	11.9 µM	10.9 µM	> 35.1 µM	0.23 µM	4.42 µM	0.758 µM	10.2 µM	19.4 µM	1.28 µM	8.1 µM	0.261 µM	17.4 µM	25.2 µM		0.196 µM	0.145 µM	0.101 µM	1.06 µM	0.211 µM
CN(C)CCNc1nc2ccccc2c2c(=O)c3ccccc3sc12	1.68 µM	4.86 µM	3.72 µM	3.77 µM	1.62 µM	3.7 µM	1.77 µM	5.82 µM	3.05 µM	1.61 µM	4.3 µM	1.39 µM	3.12 µM	6.15 µM	4.81 µM	1.71 µM	1.52 µM	1.37 µM	2.52 µM	1.8 µM
O=C(O)C(=O)CBr	> 48.4 µM and 19.9 µM	> 74 µM and 39.5 µM	> 100 µM and 34.5 µM	> 68.2 µM and 59.1 µM	> 100 µM and 21.2 µM	> 100 µM and 41.9 µM	> 100 µM	> 100 µM	> 100 µM and 94.7 µM	> 35.8 µM and 16.3 µM	> 53.9 µM and 31.6 µM	6.8 µM	> 35.3 µM and 21.6 µM	> 55.3 µM and 24.6 µM	> 76.8 µM and 62.5 µM	> 100 µM and 19 µM	> 22.2 µM and 23.8 µM	> 61.4 µM and 29.3 µM	> 39.7 µM and 11.4 µM	> 47.5 µM and 25.3 µM
CCOC(=S)SCN1C(=O)c2ccccc2S1(=O)=O	12.6 µM	27.8 µM	> 100 µM	> 100 µM	45.4 µM	> 100 µM	29.2 µM	80.9 µM	> 100 µM	16.8 µM	30.5 µM	4.96 µM	19.7 µM	> 100 µM	45.9 µM	35 µM	35.7 µM	44.1 µM	29.4 µM	14 µM
NS(=O)(=O)c1ccc(NC(=O)Nc2ccccc2F)cc1		> 100 µM	> 100 µM	> 100 µM		> 100 µM		> 100 µM	> 100 µM		> 100 µM		> 100 µM	> 100 µM	> 100 µM					
